The source of these data is patent US9963684B2 (priority 2014, dated 2018).

This assay deals with formaldehyde dehydrogenase. Format: biochemical, Burkholderia multivorans.
Setting [1] is: metal ion 1 mM in enzyme reaction solution.
Setting [2] is: metal ion 5 mM in enzyme reaction solution.

Several values for one entry are separate records, joined by “and”; a condition that tells them apart may be missing. Identical values can stand only once. Like-named read-outs stand apart in the source and are kept apart here.

In the case of `[Ca+2].[Cl-].[Cl-]` [CaCl2], the “Relative activity (%)” value was 50.67% under setting [1] and 75.96% under setting [2].

For the compound `O=S(=O)([O-])[O-].[Cu+2]` [CuSO4], the “Relative activity (%)” value by setting is: under setting [1], 124.3%; under setting [2], 91.30%.

As for `[Cl-].[Cl-].[Zn+2]` [ZnCl2], the “Relative activity (%)” value is recorded as 63.99% under setting [1] and 192.2% under setting [2].

`[Cl-].[Cl-].[Mg+2]` [MgCl2]: where the note is “5 frill Mg^2+”, the “enzyme activity in the presence of metal ion versus without it” value was found to be 2.7 times. For the same compound, the “Relative activity (%)” value by setting is: under setting [1], 147.8%; under setting [2], 269.6%.

For `[Cl-].[Cl-].[Co+2]` [CoCl2], the “Relative activity (%)” value is 58.39% and 72.60%.

As to `[Cl][Mn][Cl]` [MnCl2], the “Relative activity (%)” value is, setting by setting: under setting [1], 62.32%; under setting [2], 111.6%.

As to `[Ba+2].[Cl-].[Cl-]` [BaCl2], the “Relative activity (%)” value under setting [1] is recorded as 98.55% and the “Relative activity (%)” value under setting [2] was determined as 115.1%.

As for `[Cl-].[K+]` [KCl], the “Relative activity (%)” value is, setting by setting: under setting [1], 104.0%; under setting [2], 94.49%.
